Data set [1] deals with T1, human DDX3 (ATPase activity) (Homo sapiens, UniProt O00571).
T1 construct: made in house; host or cells: E. coli
In words: Human DDX3 ATPase activity assay (luciferase-based luminescence). The format is biochemical. The conditions noted are these: for Ki: DDX3 ATPase activity, read-out: Ki (μM), apparent equilibrium dissociation constant for the inhibitor to the target enzyme DDX3; for IC50: ATPase activity, read-out: ATPase ID50. The method, then: ATPase activity was tested with a luciferase-based luminescence assay (Easylite-Kinase, Perkin Elmer) on 96 wells microtiter plates. Briefly, recombinant purified human DDX3 (50-100 ng) was incubated in a 15 μL total reaction volume with reaction buffer (25 mM TrisHCl pH 7.5, 5 mM MgCl2), in the presence of increasing amounts of ATP and/or different combinations of ATP and the inhibitor to be tested. Reference curves in the absence of inhibitor (giving the 100% of enzymatic activity) and in the absence of enzyme (giving the baseline), were also included in each experiment. Reading was performed with a Microbeta Trilux (Perkin Elmer) luminometer, according to the manufacturer's protocol.
ATPase reactions were performed as described, in the presence of increasing amounts of inhibitor and variable ATP concentrations. Variations of the initial velocities of the reaction as a function of ATP concentrations in the absence or presence of 4 were analyzed with the equation: […]
Variation of the % inhibition as a function of compound FE15 at different ATP concentrations were fitted to the equation for cooperative binding: […]
where Vmax is the apparent maximal rate of the reaction in the absence of the inhibitor, [I] is the variable inhibitor concentration, n is the cooperativity index and Ki(app) is the apparent inhibition constant. Comparatively, fitting was done with the same Eq. (2) where n was kept fixed at the value of 1 (non-cooperativity hypothesis). F test was used to compare the two fittings and p value was calculated.
(§1) Human recombinant DDX3 was cloned, expressed and purified as described (Franca et al. Proteins 2007, 67, 1128-37).
The anti-DDX3 activity of the compounds of the invention was evaluated by in vitro ATPase activity assay using the recombinant human DDX3 protein produced in E. coli. The potency of inhibition (Ki) for each molecule was calculated, representing the concentration of the inhibitor able to reduce the DDX3 ATPase activity by 50%

A further data set deals with HIV-1. The data set is described as follows: Antiviral assay, HIV-1 replication in infected PBMCs (viral RNA in supernatant). The format is cell-based. The conditions noted are these: Human immunodeficiency virus 1, PBMC. The method, then: FIG. 1. A) Antiviral activity (expressed as % of viral load with respect to the control) of compounds FE56 and FE66 at 0.3 μM and 3 μM doses against single round HIV-1 replication in HeLaCD4+ cells infected with a wild type HIV-1 strain. Measurements were performed at 72 h post infection. B) Antiviral activity of compounds FE15 and FE66 on HIV-1 replication in phytohemagglutinin-stimulated peripheral blood mononuclear cells (PBMCs) […] with HeLa CD4^+-cell culture supernatants containing wild type HIV. Compounds were tested at 50 μM (FE15) and 5 μM (FE66). The HIV-1 RNA was quantified in the cell culture supernatant after 3, and 5 days of incubation. Results are expressed as HIV RNA copies/ml. Control (white bars).
FIG. 2. Antiviral activity of DDX3 inhibitors. A) Comparison of the antiviral activity (expressed as % of viral RNA with respect to the control) on infected PBMCs of a fixed dose of selected inhibitors. Measurements were performed at 72 h post infection. Values are the means of three independent replicates. Error bars are ±SD. White bars: control without drugs; dark grey bar: positive control with AZT (0.01 μM); black bar: first generation inhibitor FE15 (50 μM); light grey bars: second generation DDX3 inhibitors FE66, 11d and 38 (3 μM). B) Dose-response curves for the inhibiton of HIV-1 replication (expressed as % of viral RNA with respect to the control) in infected PBMCs by FE15 (circles) and 38 (triangles). Measurements were performed at 72 h post infection. Values are the means of three independent replicates. Error bars are ±SD.
In detail, 0.5 μg of each HIV-1 plasmid construct was transfected into CD4 HeLa cells by using the lipofectin reagent, according to the recommendations of the manufacturer (Invitrogen, Groningen, The Netherlands). After 3 days of incubation at 37° C., the cell supernatants, which contained reconstituted viable recombinant viruses, were collected. Quantification of the newly produced recombinant strains was obtained by determination of the HIV RNA copy number in the cell culture supernatants. Successively, 10 ml of transfected HeLa CD4^+-cell culture supernatants containing wild-type, and mutated recombinant HIV strain […], was used to infect aliquots of 10×10^6 phytohemagglutinin-stimulated peripheral blood mononuclear cells (PBMCs) from HIV-seronegative blood donors. After 4 h of incubation, supernatants were removed and infected PBMCs were incubated at 37° C. in 10 ml of RPMI 1640 medium (Eurobio, Les Ulis Cedex B, France) supplemented with 20% fetal calf serum (Life Technologies, Ltd., Paisley, Scotland), 2 mM l-glutamine, 100 U of penicillin per ml, 100 μg of streptomycin per ml, 10% interleukin-2 (ZeptoMetrix Co., Buffalo, N.Y.), 5 μg of hydrocortisone (Sigma Chemical Co.) per ml and with fourfold dilutions of antiretroviral drugs. No-drug controls for each drug dilution were included in each assay. After 3, 5 and 7 days of incubation the HIV-1 RNA in the cell culture supernatant was quantified. Recombinant HIV-1 strains from treatment-naive patients and multidrug resistance-associated changes were assayed in parallel. The degree of inhibition of viral replication was measured by determining the HIV-1 RNA level in the supernatants of cell cultures and was expressed as the fold increase in the 50% inhibitory concentrations (IC50s) for resistant recombinant HIV-1 variants compared with the IC50s for the wild-type recombinant variant. Each test was performed in triplicate.

The test system of data set [2] is cervical cancer HeLa cell line. The data set is described as follows: Antiproliferative activity against HeLa cells (CellTiter viability assay). It counts as cell-based. The conditions noted are these: Homo sapiens. The protocol: (§2) Selected compounds from Table 1 were tested against the cervical cancer HeLa cell line for antiproliferative activity. Cell viability was measured with the CellTiter viability assay (Table 2). Table 3 lists the calculated antiproliferative potencies (EC50, dose required to suppress 50% of cell viability) for a series of representative compounds of the invention.

Data set [3] can be described thus: Cell viability / cytotoxicity on HeLa cells. The conditions noted are these: human, HeLa cells (cervical cancer cell line); HeLa; Table 2 prints no unit; text gives μM; read-out: Cytotoxicity (CC50) HeLa, dose required to reduce 50% cell vitality. It counts as cell-based. The method, then: (§3) Cell viability in the presence of the compounds has been determined by standard MTT assays.
as §2

A further data set concerns HeLa cells. In words: Cell viability / cytotoxicity on HeLa cells. It counts as cell-based. The conditions noted are these: HeLa CC50 / antiviral EC50. The protocol:
as §3, §2

A short description of data set [4]: Cell viability / cytotoxicity on MOLT-4 cells. The format is cell-based. Conditions: human, MOLT-4 cells; MOLT-4; Table 2 prints no unit; read-out: Cytotoxicity (CC50) MOLT-4, dose required to reduce 50% cell vitality.
Description: as §3

The next data set concerns MOLT-4. In words: Cell viability / cytotoxicity on MOLT-4 cells. It counts as cell-based. The conditions noted are these: MOLT-4 CC50 / antiviral EC50.
Description: as §3

Data set [5] is described as follows: Cell viability / cytotoxicity on PBMCs. It counts as cell-based. The conditions noted are these: human; PBMCs; Table 2 prints no unit; read-out: Cytotoxicity (CC50) PBMCs, dose required to reduce 50% cell vitality.
Description: as §3

The next data set concerns PBMCs. The data set is described as follows: Cell viability / cytotoxicity on PBMCs. It counts as cell-based. Conditions: PBMCs CC50 / antiviral EC50.
Description: as §3

The target of data set [6] is T2, human DDX3 (helicase activity) (Homo sapiens, UniProt O00571).
T2 construct: made in house
In words: Human DDX3 helicase activity assay (ds to ss nucleic acid unwinding). The conditions noted are these: for fold higher potency against the helicase with respect to the ATPase activity: helicase versus ATPase ID50; for fold improvement in anti-helicase activity with respect to EI01: ratio of helicase ID50; for IC50: anti-helicase activity, na = not active, read-out: Helicase ID50. The format is biochemical. The method, then:
The helicase activity of DDX3 wt and mutant forms was monitored by measuring the conversion of a double stranded (ds) DNA or RNA (labelled at the 5′-end of one strand with a 6-FAM fluorescent group or P^32, respectively) into single stranded (ss) nucleic acid. Reactions were performed in 50 mM TrisHCl pH 7.5, 1 mM DTT, 0.2 mg/ml BSA, 5% glycerol and 100 μM ATP, 10 mM MgCl2 at 37° C. degrees for 10′ and stopped by adding EDTA 50 mM pH 8. Products were separated through non-denaturating 8% PAGE at 5 W for 2 hours in TBE buffer at 4° C. Substrates and products were quantified by laser scanning densitometry (Thyphoon-TRIO, GE Healthcare).
as §1
Compounds were obtained by application of a virtual docking protocol on the RNA-binding site identified in the homology model developed in the present invention. These compounds were commercially available (EI-compounds in Table 4). A few other compounds (25-31, EXAMPLE 6) were rationally designed to target the above mentioned RNA-binding site and then synthesized. All the compounds were tested for anti-helicase activity.

[7] abbreviates: 48 hours, read-out: EC50 (μM) 48 hours, dose required to suppress 50% of cell viability.
Setting [8] is: 72 hours, read-out: EC50 (μM) 72 hours, dose required to suppress 50% of cell viability.

SMILES strings stand for the structures. Read-outs that look alike come from different tables or passages of the source.

T1 sequence (O00571 whole entry): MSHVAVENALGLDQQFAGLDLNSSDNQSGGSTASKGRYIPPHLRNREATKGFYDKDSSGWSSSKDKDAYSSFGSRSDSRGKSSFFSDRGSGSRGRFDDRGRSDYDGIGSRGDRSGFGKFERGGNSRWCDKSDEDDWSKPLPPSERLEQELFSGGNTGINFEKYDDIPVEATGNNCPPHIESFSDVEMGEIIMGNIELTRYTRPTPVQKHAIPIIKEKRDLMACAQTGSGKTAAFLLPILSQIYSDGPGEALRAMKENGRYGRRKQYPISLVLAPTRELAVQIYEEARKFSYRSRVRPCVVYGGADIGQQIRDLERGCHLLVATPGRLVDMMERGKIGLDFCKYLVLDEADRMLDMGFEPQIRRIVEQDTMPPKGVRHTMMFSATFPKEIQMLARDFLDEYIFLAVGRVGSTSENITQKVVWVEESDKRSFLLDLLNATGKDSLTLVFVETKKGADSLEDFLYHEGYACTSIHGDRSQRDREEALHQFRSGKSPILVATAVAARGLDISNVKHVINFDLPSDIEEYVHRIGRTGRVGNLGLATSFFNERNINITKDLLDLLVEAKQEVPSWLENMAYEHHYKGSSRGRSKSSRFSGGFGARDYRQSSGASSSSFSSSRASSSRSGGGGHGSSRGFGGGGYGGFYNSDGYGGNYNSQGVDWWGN
T2 sequence (O00571 whole entry): as above

For orientation: melting point means the temperature, or range, at which the solid turns liquid. The compound `Oc1ccccc1/C=N/Nc1nc(Nc2ccc(F)cc2)nc(N2CCOCC2)n1` [Compound 11d, (E)-2-((2-(4-(4-Fluorophenylamino)-6-morpholino-1,3,5-triazin-2-yl)hydrazono)methyl)phenol] gave a melting point of 234 °C. For the same compound, the Ki in data set [1] is 0.4 µM. Moreover, the EC50 in the data set with HIV-1 (72 h, read-out: EC50, anti-HIV activity) was 2.5 µM.

On to `CCN(CC)c1nc(NCc2ccccc2)nc(N/N=C2/C(=O)Nc3ccccc32)n1` [Compound 14g, (E)-3-(2-(4-(benzylamino)-6-(diethylamino)-1,3,5-triazin-2-yl)hydrazono)indolin-2-one], for which, in [1], the Ki was found to be 0.1 µM. Further, the EC50 in [2] (setting [7]) and in data set [2] (setting [8]) was 10 µM throughout.

Turning to `CCN(CC)c1nc(NCc2ccccc2)nc(N/N=C/c2ccccc2O)n1` [Compound 15k, (E)-2-((2-(4-(benzylamino)-6-(diethylamino)-1,3,5-triazin-2-yl)hydrazono)methyl)phenol], the Ki in data set [1] turned out to be 0.5 µM. Also, the EC50 stood at 3 µM in data set [2] (setting [7]) and 1 µM in data set [2] (setting [8]).

For orientation: CC50 means the concentration giving 50% cytotoxicity. For the compound `Oc1ccccc1/C=N/Nc1nc(Nc2ccc(F)cc2)nc(N2CCOCC2)n1` [Compound 16c], the EC50 in the data set with HIV-1 (read-out: Antiviral activity, dose required to reduce 50% viral proliferation (measured as viral RNA load)) was determined as 2.5 ± 0.1 µM. Besides, the 50% cytotoxic concentration (CC50) was determined as 2.5 ± 0.3 µM in [3], 5 ± 1 µM in [4] and 10 ± 1 µM in [5]. Also, in the data set with HeLa cells, the “Selectivity index HeLa, CC50/EC50” value turned out to be 1.0. Moreover, the “Selectivity index MOLT-4, CC50/EC50” value in the data set with MOLT-4 came to 2.0. Moreover, in the data set on PBMCs, the “Selectivity index PBMCs, CC50/EC50” value is 4.0.

As for `Cc1ccccc1NC(=O)Nc1cccc([N+](=O)[O-])c1` [Compound 25, 1-(3-nitrophenyl)-3-o-tolylurea], in [1], the IC50 turned out to be 11 µM. Besides, in data set [6], the “fold higher potency against the helicase with respect to the ATPase activity” value stood at 11 fold and the “fold improvement in anti-helicase activity with respect to EI01” value is recorded as 245 fold.

Turning to `Cc1ccccc1NC(=O)Nc1cccc(N)c1` [Compound 26, 1-(3-aminophenyl)-3-o-tolylurea], in [6], the IC50 was found to be 5.7 µM and the “fold improvement in anti-helicase activity with respect to EI01” value came out at 43 fold.

Take `O=C(Nc1cccc([N+](=O)[O-])c1)Nc1cccc([N+](=O)[O-])c1` [Compound 29, 1,3-bis(3-nitrophenyl)urea]: in [6], the IC50 is 52 µM.

As to `Nc1cccc(NC(=O)Nc2cccc(N)c2)c1` [Compound 30, 1,3-bis(3-aminophenyl)urea], the IC50 in [6] was determined as 24 µM.

In the case of `Cc1ccccc1NC(=O)Nc1cccc(NC(=O)Nc2cccc(NC(=O)Nc3ccccc3C)c2)c1` [Compound 31, 1,3-bis(3-{[(2-methylphenyl)carbamoyl]amino}phenyl)urea], the IC50 in data set [6] was 1300 µM.

As for `Cc1ccc(NC(=O)c2cccc(NC(=O)Nc3cccc(C)c3C)c2)cc1C` [EI-01A], the IC50 in [6] turned out to be 131 µM.

Regarding `O=C(Nc1cccc(C(=O)Nc2ccccc2Cl)c1)Nc1ccccc1Cl` [EI-01B], the IC50 in [6] was 1300 µM.

As to `Cc1ccccc1NC(=O)Nc1cccc(NC(=O)Nc2ccccc2C)c1` [EI-01], in [1], the IC50 worked out at 245 µM. For the same compound, in data set [6], the IC50 amounted to 250 µM; the “fold higher potency against the helicase with respect to the ATPase activity” value is “did not discriminate between ATPase and helicase activities”.

For `COc1ccc(Nc2nc(NCc3ccco3)nc(N/N=C/c3cc([N+](=O)[O-])ccc3O)n2)cc1` [FE-56A], the Ki in data set [1] is 31.7 µM. The EC50 in data set [2] (setting [7]) amounted to 8 µM; in data set [2] (setting [8]) it was 4 µM.

As for `CC(=O)Nc1ccc(/C(C)=N/Nc2nc(Nc3ccccc3)nc(Nc3ccccc3)n2)cc1` [FE-56F], in [1], the Ki was 0.3 µM. The EC50 was determined as 10 µM in [2] (setting [7]) and 5 µM in data set [2] (setting [8]).

For the compound `Cc1[nH]c2ccccc2c1/C=N/Nc1nc(Nc2ccc(F)cc2)nc(N2CCOCC2)n1` [FE-56M], the Ki in data set [1] turned out to be 0.2 µM. For the same compound, the results for the EC50 in [2] (setting [7]) and in [2] (setting [8]) were 10 µM and 5 µM, respectively.

For the compound `Clc1ccc(-c2ccc(/C=N/Nc3nc(Nc4ccccc4)nc(N4CCCCC4)n3)o2)cc1` [FE-56N], the Ki in data set [1] was 0.4 µM. Besides, the EC50 in data set [2] (setting [7]) amounted to 25 µM; in data set [2] (setting [8]), 4 µM.

The values above are taken from patent US20120202814A1, “COMPOUNDS WITH DDX3 INHIBITORY ACTIVITY AND USES THEREOF” (UNIVERSITÀ DEGLI STUDI DI SIENA, priority 2009, published 2012).
